# In ChEMBL document CHEMBL1143467, “Synthesis of potent and selective serotonin 5-HT1B receptor ligands” (Bioorg Med Chem Lett, 2005):
# Legend:
# [1] = target: T1, 5-hydroxytryptamine receptor 1A (Homo sapiens, UniProt P08908); experiment: In vitro binding affinity towards cloned human 5-HT1A receptor using [3H]5-carboximidotryptamine as radioligand
# T1 sequence (P08908 whole entry): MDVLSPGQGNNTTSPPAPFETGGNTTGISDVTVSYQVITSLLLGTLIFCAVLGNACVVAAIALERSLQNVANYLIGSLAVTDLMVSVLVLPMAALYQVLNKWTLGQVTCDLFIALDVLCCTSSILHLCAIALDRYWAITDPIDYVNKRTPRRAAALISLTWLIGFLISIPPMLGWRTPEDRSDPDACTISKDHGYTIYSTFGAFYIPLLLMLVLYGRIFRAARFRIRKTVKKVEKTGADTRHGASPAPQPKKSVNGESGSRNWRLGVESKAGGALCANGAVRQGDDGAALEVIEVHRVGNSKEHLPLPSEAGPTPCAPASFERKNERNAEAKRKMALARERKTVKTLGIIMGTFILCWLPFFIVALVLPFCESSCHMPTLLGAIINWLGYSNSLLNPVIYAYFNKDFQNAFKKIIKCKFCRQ
# [2] = target: Delta-type opioid receptor (Homo sapiens, UniProt P41143); experiment: Affinity towards cloned Opioid receptor delta 1
# [3] = target: T2, Muscarinic acetylcholine receptor M1 (Homo sapiens, UniProt P11229); experiment: Affinity towards cloned Muscarinic acetylcholine receptor M1
# T2 sequence (P11229 whole entry): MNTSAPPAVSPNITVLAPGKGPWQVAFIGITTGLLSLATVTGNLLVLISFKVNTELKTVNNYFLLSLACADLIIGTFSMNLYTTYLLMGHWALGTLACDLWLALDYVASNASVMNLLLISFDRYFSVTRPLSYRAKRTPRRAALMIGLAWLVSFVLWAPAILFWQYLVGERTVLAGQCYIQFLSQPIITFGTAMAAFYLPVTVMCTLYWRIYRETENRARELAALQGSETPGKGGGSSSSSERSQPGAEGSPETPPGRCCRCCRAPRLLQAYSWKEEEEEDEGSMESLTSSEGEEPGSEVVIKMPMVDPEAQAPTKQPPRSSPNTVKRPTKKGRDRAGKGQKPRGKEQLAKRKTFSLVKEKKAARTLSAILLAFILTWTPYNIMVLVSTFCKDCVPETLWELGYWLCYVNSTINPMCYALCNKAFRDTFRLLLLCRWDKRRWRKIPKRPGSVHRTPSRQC
# D(3) dopamine receptor = D(3) dopamine receptor (Homo sapiens, UniProt P35462); experiment: Affinity towards cloned Dopamine receptor D3
# [4] = target: T3, Muscarinic acetylcholine receptor M5 (Homo sapiens, UniProt P08912); experiment: Affinity towards cloned Muscarinic acetylcholine receptor M5
# T3 sequence (P08912 whole entry): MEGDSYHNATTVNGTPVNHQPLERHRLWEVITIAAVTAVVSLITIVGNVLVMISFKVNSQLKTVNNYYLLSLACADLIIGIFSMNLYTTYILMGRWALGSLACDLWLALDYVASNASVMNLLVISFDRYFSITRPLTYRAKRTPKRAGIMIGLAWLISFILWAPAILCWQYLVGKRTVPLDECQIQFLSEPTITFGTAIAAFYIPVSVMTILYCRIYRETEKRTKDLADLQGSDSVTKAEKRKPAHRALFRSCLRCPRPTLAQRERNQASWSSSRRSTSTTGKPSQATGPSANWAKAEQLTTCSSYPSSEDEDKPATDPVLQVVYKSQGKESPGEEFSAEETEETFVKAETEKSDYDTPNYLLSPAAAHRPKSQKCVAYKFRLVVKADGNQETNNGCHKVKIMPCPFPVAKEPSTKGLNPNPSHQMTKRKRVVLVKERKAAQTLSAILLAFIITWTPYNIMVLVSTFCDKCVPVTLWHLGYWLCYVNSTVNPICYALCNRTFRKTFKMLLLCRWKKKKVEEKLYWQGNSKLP
# [5] = target: T4, Muscarinic acetylcholine receptor M4 (Homo sapiens, UniProt P08173); experiment: Affinity towards cloned Muscarinic acetylcholine receptor M4
# T4 sequence (P08173 whole entry): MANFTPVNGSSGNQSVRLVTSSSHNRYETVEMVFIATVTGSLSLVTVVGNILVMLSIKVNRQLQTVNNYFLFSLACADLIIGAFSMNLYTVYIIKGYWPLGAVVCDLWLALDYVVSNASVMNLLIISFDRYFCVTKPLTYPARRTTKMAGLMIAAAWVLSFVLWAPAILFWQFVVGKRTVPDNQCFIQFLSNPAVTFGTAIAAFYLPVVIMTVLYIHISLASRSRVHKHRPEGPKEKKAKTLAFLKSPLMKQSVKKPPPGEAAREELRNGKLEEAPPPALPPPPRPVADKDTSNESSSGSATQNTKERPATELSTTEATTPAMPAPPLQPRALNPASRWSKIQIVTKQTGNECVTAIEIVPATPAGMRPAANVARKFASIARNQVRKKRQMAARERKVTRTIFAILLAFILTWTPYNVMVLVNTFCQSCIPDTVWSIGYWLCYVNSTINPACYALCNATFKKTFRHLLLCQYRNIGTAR
# [6] = target: 5-hydroxytryptamine receptor 7 (Homo sapiens, UniProt P34969); experiment: In vitro binding affinity towards cloned human 5-HT7 receptor using [3H]5-carboximidotryptamine as radioligand
# [7] = target: Kappa-type opioid receptor (Homo sapiens, UniProt P41145); experiment: Affinity towards cloned Opioid receptor kappa 1
# [8] = target: 5-hydroxytryptamine receptor 1D (Homo sapiens, UniProt P28221); experiment: In vitro binding affinity towards cloned human 5-HT1D receptor using [3H]5-carboximidotryptamine as radioligand
# [9] = target: T5, 5-hydroxytryptamine receptor 2C (Homo sapiens, UniProt P28335); experiment: In vitro binding affinity towards cloned human 5-HT2C receptor using [3H]5-carboximidotryptamine as radioligand
# T5 sequence (P28335 whole entry): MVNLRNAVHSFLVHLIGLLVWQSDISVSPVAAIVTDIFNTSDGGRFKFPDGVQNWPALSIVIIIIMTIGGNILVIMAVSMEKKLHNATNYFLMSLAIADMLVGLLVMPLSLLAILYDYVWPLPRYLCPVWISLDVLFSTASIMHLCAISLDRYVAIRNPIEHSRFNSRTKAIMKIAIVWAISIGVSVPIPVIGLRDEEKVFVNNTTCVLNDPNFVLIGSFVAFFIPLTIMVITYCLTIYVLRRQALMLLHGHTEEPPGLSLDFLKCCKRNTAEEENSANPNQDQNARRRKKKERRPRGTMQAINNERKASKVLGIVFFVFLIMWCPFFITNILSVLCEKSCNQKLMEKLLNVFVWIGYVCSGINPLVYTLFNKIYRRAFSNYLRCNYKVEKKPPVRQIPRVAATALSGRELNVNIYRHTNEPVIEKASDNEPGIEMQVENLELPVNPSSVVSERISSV
# Mu-type opioid receptor = Mu-type opioid receptor (Homo sapiens, UniProt P35372); experiment: Affinity towards cloned Opioid receptor mu 1
# Sequence of Mu-type opioid receptor (P35372 whole entry): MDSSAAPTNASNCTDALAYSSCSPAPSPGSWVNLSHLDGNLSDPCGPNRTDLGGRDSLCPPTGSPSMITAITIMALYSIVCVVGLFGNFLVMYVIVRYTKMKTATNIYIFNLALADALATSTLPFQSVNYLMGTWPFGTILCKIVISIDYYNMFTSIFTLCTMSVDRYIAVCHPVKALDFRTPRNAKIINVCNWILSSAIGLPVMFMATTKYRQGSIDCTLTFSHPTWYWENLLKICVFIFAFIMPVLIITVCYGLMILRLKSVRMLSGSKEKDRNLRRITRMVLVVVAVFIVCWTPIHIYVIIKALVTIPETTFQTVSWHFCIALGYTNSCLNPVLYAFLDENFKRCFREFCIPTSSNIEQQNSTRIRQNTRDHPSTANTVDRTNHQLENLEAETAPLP
# Sequence of 5-hydroxytryptamine receptor 1D (P28221 whole entry): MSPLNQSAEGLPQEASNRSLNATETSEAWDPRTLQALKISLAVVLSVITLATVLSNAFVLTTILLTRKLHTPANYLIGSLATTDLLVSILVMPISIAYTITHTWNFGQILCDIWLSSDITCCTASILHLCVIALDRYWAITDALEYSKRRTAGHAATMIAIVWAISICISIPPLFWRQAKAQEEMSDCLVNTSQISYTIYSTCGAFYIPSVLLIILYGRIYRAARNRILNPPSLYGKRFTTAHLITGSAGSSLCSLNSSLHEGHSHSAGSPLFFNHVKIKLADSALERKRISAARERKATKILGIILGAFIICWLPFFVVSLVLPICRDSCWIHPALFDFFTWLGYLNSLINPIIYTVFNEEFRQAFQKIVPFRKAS
# Sequence of 5-hydroxytryptamine receptor 7 (P34969 whole entry): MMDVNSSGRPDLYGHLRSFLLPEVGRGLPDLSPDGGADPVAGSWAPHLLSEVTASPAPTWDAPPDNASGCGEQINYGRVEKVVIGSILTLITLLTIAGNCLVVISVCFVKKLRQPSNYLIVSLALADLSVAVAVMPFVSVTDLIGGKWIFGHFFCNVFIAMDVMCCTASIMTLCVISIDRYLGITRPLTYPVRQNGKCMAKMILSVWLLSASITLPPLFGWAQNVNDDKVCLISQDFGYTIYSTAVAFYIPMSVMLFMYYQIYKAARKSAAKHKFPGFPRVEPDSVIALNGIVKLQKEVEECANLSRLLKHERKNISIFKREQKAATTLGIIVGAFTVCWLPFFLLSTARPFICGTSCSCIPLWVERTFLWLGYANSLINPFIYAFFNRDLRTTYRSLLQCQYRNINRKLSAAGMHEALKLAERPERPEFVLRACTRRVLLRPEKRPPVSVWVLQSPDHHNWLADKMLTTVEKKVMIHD
# Sequence of Kappa-type opioid receptor (P41145 whole entry): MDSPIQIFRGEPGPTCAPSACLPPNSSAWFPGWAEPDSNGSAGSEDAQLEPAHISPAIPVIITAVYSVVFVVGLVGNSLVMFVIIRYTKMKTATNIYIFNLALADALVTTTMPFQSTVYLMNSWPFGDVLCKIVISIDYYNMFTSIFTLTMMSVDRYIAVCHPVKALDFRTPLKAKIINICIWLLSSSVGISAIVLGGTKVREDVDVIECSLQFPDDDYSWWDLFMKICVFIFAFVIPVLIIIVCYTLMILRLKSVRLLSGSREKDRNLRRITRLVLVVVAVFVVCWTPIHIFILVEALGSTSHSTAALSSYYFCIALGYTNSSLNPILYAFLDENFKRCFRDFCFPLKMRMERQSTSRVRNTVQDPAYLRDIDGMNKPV
# Sequence of D(3) dopamine receptor (P35462 whole entry): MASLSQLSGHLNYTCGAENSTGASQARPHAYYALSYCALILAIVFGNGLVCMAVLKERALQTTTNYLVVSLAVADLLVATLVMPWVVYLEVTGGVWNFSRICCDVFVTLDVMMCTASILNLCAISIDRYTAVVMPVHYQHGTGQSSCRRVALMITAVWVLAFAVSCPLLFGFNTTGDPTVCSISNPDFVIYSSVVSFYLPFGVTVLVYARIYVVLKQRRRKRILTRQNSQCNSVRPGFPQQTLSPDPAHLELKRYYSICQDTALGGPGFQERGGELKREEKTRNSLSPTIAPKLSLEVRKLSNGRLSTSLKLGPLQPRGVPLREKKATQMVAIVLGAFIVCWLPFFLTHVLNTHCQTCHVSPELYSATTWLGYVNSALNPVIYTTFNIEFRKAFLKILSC
# Sequence of Delta-type opioid receptor (P41143 whole entry): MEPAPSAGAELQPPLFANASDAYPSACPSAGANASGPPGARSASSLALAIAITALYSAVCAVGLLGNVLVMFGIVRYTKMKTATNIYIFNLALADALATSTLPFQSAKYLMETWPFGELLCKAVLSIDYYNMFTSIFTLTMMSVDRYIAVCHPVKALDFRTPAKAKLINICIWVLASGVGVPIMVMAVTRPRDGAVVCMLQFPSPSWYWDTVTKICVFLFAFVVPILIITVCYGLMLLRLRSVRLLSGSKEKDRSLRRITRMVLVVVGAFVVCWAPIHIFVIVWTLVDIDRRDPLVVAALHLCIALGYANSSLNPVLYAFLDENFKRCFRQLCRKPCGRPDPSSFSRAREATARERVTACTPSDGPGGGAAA
Compound,Ki [1] [nM],Ki [2] [µM],Ki [3] [µM],Ki (D(3) dopamine receptor) [µM],Ki [4] [µM],Ki [5] [µM],Ki [6] [µM],Ki [7] [µM],Ki [8] [nM],Ki [9] [nM],Ki (Mu-type opioid receptor) [µM]
COc1ccc(NC(=O)N2CCN(c3ccc(F)cc3)CC2)cc1N1CCN(C)CC1,1080,> 10,> 10,> 10,> 10,> 10,> 10,> 10,168,> 10000,> 10
COc1ccccc1N1CCC(C(=O)Nc2ccc(OC)c(N3CCN(C)CC3)c2)CC1,15.4,> 10,> 10,> 10,> 10,> 10,,> 10,15.4,9950,> 10
COc1ccc(NC(=O)N2CCN(c3ccccc3F)CC2)cc1N1CCN(C)CC1,315,> 10,> 10,> 10,> 10,> 10,> 10,> 10,103,1080,> 10
COc1ccc(NC(=O)N2CCN(c3ccc(C(F)(F)F)cc3)CC2)cc1N1CCN(C)CC1,382,> 10,> 10,> 10,> 10,> 10,> 10,> 10,345,2830,> 10
COc1ccc(NC(=O)N2CCN(c3ccc(-c4ccccc4)cc3)CC2)cc1N1CCN(C)CC1,405,> 10,> 10,> 10,> 10,> 10,> 10,> 10,209,6.5,> 10
COc1ccc(NC(=O)N2CCN(c3ccc(SC)cc3)CC2)cc1N1CCN(C)CC1,882,> 10,> 10,> 10,> 10,> 10,> 10,> 10,329,1140,> 10
COc1ccc(NC(=O)N2CCN(c3ccccc3Cl)CC2)cc1N1CCN(C)CC1,335,> 10,> 10,> 10,> 10,> 10,0.342,> 10,34.7,1240,> 10
COc1ccc(NC(=O)N2CCN(c3ccc(Cl)cc3)CC2)cc1N1CCN(C)CC1,52.5,> 10,> 10,> 10,> 10,> 10,> 10,> 10,6.51,267,> 10
COc1ccc(NC(=O)c2ccc(-c3ccc(-c4noc(C)n4)cc3C)cc2)cc1N1CCN(C)CC1 [GR-127935],80,> 10,> 10,> 10,> 10,> 10,> 10,> 10,,105,> 10
